This is an account of results in patent US10138232B2, “Naphthyridinedione derivatives” (NOVARTIS AG, priority 2014, dated 2018).

This test relates to CFTR-Y122X (GFP-CFTR-Y122X-Renilla construct) in Hek293 cell lines. In words: CFTR-Y122X assay (dual reporter readthrough, Renilla luminescence). The settings on record: Homo sapiens, compounds incubated 24 h, tested up to 100 μM; for AC50: nonsense mutation suppression in the CFTR-Y122X assay; for Emax: nonsense mutation suppression, 100% activity = 14 mM paromomycin, read-out: Amax. It counts as cell-based. From the text: In particular, compounds of formula (I), (I′), (Ia), (Ia′) or (Ib) I act as nonsense mutation suppressors on frequent PTCs, e.g. on Y122X in the mRNA of the cystic fibrosis conductance regulator protein (CFTR). This can be determined in vitro, for example, using cell lines expressing GFP-CFTR-Y122X-Renilla constructs as described herein.
Activity of compounds of the present invention was examined in recombinant, dual reporter isogenic Hek293 cell lines (“CFTR-Y122X assay”). The engineered reporter constructs contained the 18 bp sequence strech corresponding to a common Y122X PTC mutation in CFTR class I mutant patients (see Sermet-Gaudelus, BMC Medicine, 2007, 5(5)). Instead of a tyrosine (Y) in position 122 of the CFTR protein a TGA stop codon interrupts the open reading frame (Y122X) of the corresponding mRNA. This TGA stop codon triplet (followed by the pyrimidine base cytosine) is permissive to aminoglycoside mediated translational readthrough which served as positive control for high throughput screening. A corresponding TAA stop codon variant and a wildtype non mutated construct was used for confirmation and counter screening. The CFTR sequence was sandwiched between an eGFP reporter, and a triple myc tag sequence fused to a full length Renilla reporter. All sequences, including an intron containing one positioned pre-eGFP (b-globin intron) were cloned in frame. The corresponding expression constructs were stably expressed in the isogenic HEK-R4 cell host (Invitrogen Incorp.) and selected by blasticidin resistance. The isogenic integration of the construct minimizes gene dose effects and improves assay reproducibility. Stably integrated single cell derived clones were selected and characterized for aminoglycoside mediated readthrough. […] Readthrough of Y122X accumulates an intracellular localized fusion protein approximately 65.5 kDa in size as controlled by western blot analysis and immunofluorescence using an anti-renilla antibody. The eGFP reporter pre-PTC mutation serves as visual control for genetic stability of the screening clones and minimizes protein degradation of small fusion protein amounts. In the assay, compound concentration was 10 μM. In miniaturized 1536 well format 2000 cells were dispensed in 4 μl/well and incubated for 24 h at 37° C., 5% CO2. 40 nl compounds were placed on the cells with control wells containing 1 ul Paramomycin and 14.4 mM final concentration. Compounds were incubated for 24 h. Renilla Glo substrate (2.5 ul) was added and plates were centrifuged and processed for luminescence measurement using various readers. Activity calculation was done using the equation: A1(%)=100*(S−NC)/(AC−NC) where AC, NC and S correspond to active controls (injection of Stimulation buffer=100% stimulation), neutral controls (buffer injection which Iloprost EC10) and screening samples (S). NC corresponds to 0% activity whereas AC is 100% activity (14 mM paromomycin). False positive artefacts were removed in confirmation and validation screening using the same assay format followed by counterscreening using the respective wildtype construct (w/o PTC mutation) cell model. Compounds were tested up to 100 μM compound concentration.

With `Cn1c2cc(C3CCC3)n(-c3ccccc3)c(=O)c2c(=O)c2ccsc21` [Example 1.29, 7-cyclobutyl-9-methyl-6-phenylthieno[2,3-b][1,6]naphthyridine-4,5(6H,9H)-dione], the activity was half-maximal at 700 nM (AC50) and the Emax was determined as 286%.
Take `O=c1c2c([nH]c3cc(C4CCC4)n(-c4ccccc4)c(=O)c13)CCCC2` [Example 1.30, 3-cyclobutyl-2-phenyl-6,7,8,9-tetrahydrobenzo[b][1,6]naphthyridine-1,10(2H,5H)-dione]: the half-maximal activity concentration (AC50) amounted to 700 nM and the Emax turned out to be 324%.
`Cc1cc2c(=O)c3c(=O)n(-c4ccccc4)c(C4CCC4)cc3n(C)c2s1` [Example 1.31, 7-cyclobutyl-2,9-dimethyl-6-phenylthieno[2,3-b][1,6]naphthyridine-4,5(6H,9H)-dione]: the half-maximal activity concentration (AC50) was 600 nM and the Emax turned out to be 228%.
Turning to `O=c1c2ccsc2[nH]c2cc(C3CCC3)n(-c3ccccc3)c(=O)c12` [Example 1.32, 7-cyclobutyl-6-phenylthieno[2,3-b][1,6]naphthyridine-4,5(6H,9H)-dione], the activity was half-maximal at 4200 nM (AC50) and the Emax amounted to 247%.
With `Cc1cc2c(=O)c3c(=O)n(-c4ccccc4)c(C4CCC4)cc3[nH]c2s1` [Example 1.33, 7-cyclobutyl-2-methyl-6-phenylthieno[2,3-b][1,6]naphthyridine-4,5(6H,9H)-dione], the half-maximal activity concentration (AC50) worked out at 19400 nM and the Emax came out at 243%.
Consider `Cn1c2ccsc2c(=O)c2c(=O)n(-c3ccccc3)c(C3CCC3)cc21` [Example 1.34, 6-cyclobutyl-4-methyl-7-phenylthieno[3,2-b][1,6]naphthyridine-8,9(4H,7H)-dione], for which the activity was half-maximal at 1000 nM (AC50) and the Emax is 263%.
`O=c1c2sccc2[nH]c2cc(C3CCC3)n(-c3ccccc3)c(=O)c12` [Example 1.35, 6-cyclobutyl-7-phenylthieno[3,2-b][1,6]naphthyridine-8,9(4H,7H)-dione]: the half-maximal activity concentration (AC50) stood at 400 nM and the Emax was 126%.
On to `Cc1cc2c(s1)c(=O)c1c(=O)n(-c3ccccc3)c(C3CCC3)cc1n2C` [Example 1.36, 6-cyclobutyl-2,4-dimethyl-7-phenylthieno[3,2-b][1,6]naphthyridine-8,9(4H,7H)-dione], for which the concentration at half-maximal activity (AC50) came to 4100 nM and the Emax was found to be 177%.
Turning to `Cc1cc2[nH]c3cc(C4CCC4)n(-c4ccccc4)c(=O)c3c(=O)c2s1` [Example 1.37, 6-cyclobutyl-2-methyl-7-phenylthieno[3,2-b][1,6]naphthyridine-8,9(4H,7H)-dione], half-maximal activity (AC50) was put at 1400 nM and the Emax worked out at 164%.
On to `Cc1ccc2c(c1)c(=O)c1c(=O)n(-c3ccccc3)c(C3CCC3)cc1n2C` [Example 1.38, 3-cyclobutyl-5,8-dimethyl-2-phenylbenzo[b][1,6]naphthyridine-1,10(2H,5H)-dione], for which the AC50 was found to be 2300 nM and the Emax came out at 215%.
Take `Cn1c2ccc(F)cc2c(=O)c2c(=O)n(-c3ccccc3)c(C3CCC3)cc21` [Example 1.39, 3-cyclobutyl-8-fluoro-5-methyl-2-phenylbenzo[b][1,6]naphthyridine-1,10(2H,5H)-dione]: the AC50 was 1200 nM and the Emax was determined as 239%.
As to `O=c1c2cc(Cl)ccc2[nH]c2cc(C3CCC3)n(-c3ccccc3)c(=O)c12` [Example 1.40, 8-chloro-3-cyclobutyl-2-phenylbenzo[b][1,6]naphthyridine-1,10(2H,5H)-dione], half-maximal activity (AC50) was put at 1000 nM and the Emax is 300%.
With `Cc1ccc2[nH]c3cc(C4CCC4)n(-c4ccccc4)c(=O)c3c(=O)c2c1` [Example 1.41, 3-cyclobutyl-8-methyl-2-phenylbenzo[b][1,6]naphthyridine-1,10(2H,5H)-dione], the activity was half-maximal at 500 nM (AC50) and the Emax worked out at 223%.
Take `Cn1c2ccc(Cl)cc2c(=O)c2c(=O)n(-c3ccccc3)c(C3CCC3)cc21` [Example 1.42, 8-chloro-3-cyclobutyl-5-methyl-2-phenylbenzo[b][1,6]naphthyridine-1,10(2H,5H)-dione]: the AC50 amounted to 3900 nM and the Emax turned out to be 134%.
Consider `COc1cccc2c(=O)c3c(=O)n(-c4ccccc4)c(C(C)C)cc3n(C)c12` [Example 1.43, 3-isopropyl-6-methoxy-5-methyl-2-phenylbenzo[b][1,6]naphthyridine-1,10(2H,5H)-dione], for which half-maximal activity (AC50) was put at 22000 nM and the Emax was found to be 186%.
For `O=c1c2cc(F)ccc2[nH]c2cc(C3CCC3)n(-c3ccccc3)c(=O)c12` [Example 1.44, 3-cyclobutyl-8-fluoro-2-phenylbenzo[b][1,6]naphthyridine-1,10(2H,5H)-dione], in that order: 400 nM and 178%.
With `O=c1c2cccc3c2n(c2cc(C4CCC4)n(-c4ccccc4)c(=O)c12)CC3` [Example 1.45, 9-cyclobutyl-8-phenyl-1H-indolo[1,7-ab][1,6]naphthyridine-6,7(2H,8H)-dione], the AC50 worked out at 600 nM and the Emax stood at 252%.
With `COc1cccc2c(=O)c3c(=O)n(-c4ccccc4)c(C4CCC4)cc3n(C)c12` [Example 1.46, 3-cyclobutyl-6-methoxy-5-methyl-2-phenylbenzo[b][1,6]naphthyridine-1,10(2H,5H)-dione], the concentration at half-maximal activity (AC50) turned out to be 3400 nM and the Emax was determined as 247%.
In the same order, the values of `COc1cccc2c(=O)c3c(=O)n(-c4ccccc4)c(C(C)C)cc3[nH]c12` [Example 1.47, 3-isopropyl-6-methoxy-2-phenylbenzo[b][1,6]naphthyridine-1,10(2H,5H)-dione] are 5200 nM and 312%.
In the case of `COc1cccc2c(=O)c3c(=O)n(-c4ccccc4)c(C4CCC4)cc3[nH]c12` [Example 1.48, 3-cyclobutyl-6-methoxy-2-phenylbenzo[b][1,6]naphthyridine-1,10(2H,5H)-dione], the AC50 was found to be 1800 nM and the Emax was 227%.
`COc1ccc2c(c1)c(=O)c1c(=O)n(-c3ccccc3)c(C(C)C)cc1n2C` [Example 1.49]: the Emax is 17%.
`COc1ccc2[nH]c3cc(C(C)C)n(-c4ccccc4)c(=O)c3c(=O)c2c1` [Example 1.50, 3-isopropyl-8-methoxy-2-phenylbenzo[b][1,6]naphthyridine-1,10(2H,5H)-dione]: the AC50 turned out to be 16900 nM and the Emax was found to be 110%.
Consider `CC(C)c1cc2c(c(=O)c3cc(O)ccc3n2C)c(=O)n1-c1ccccc1` [Example 1.51, 8-hydroxy-3-isopropyl-5-methyl-2-phenylbenzo[b][1,6]naphthyridine-1,10(2H,5H)-dione], for which the activity was half-maximal at 16500 nM (AC50) and the Emax was found to be 144%.
Regarding `CC(C)c1cc2c(c(=O)c3cccc(O)c3n2C)c(=O)n1-c1ccccc1` [Example 1.52, 6-hydroxy-3-isopropyl-5-methyl-2-phenylbenzo[b][1,6]naphthyridine-1,10(2H,5H)-dione], the activity was half-maximal at 21000 nM (AC50) and the Emax worked out at 49%.
In the case of `O=c1c2ccccc2[nH]c2cc(C3CCC3)n(C3CCCC3)c(=O)c12` [Example 2.1, 3-cyclobutyl-2-cyclopentylbenzo[b][1,6]naphthyridine-1,10(2H,5H)-dione], half-maximal activity (AC50) was put at 500 nM and the Emax was found to be 229%.
`Cn1c2ccccc2c(=O)c2c(=O)n(C3CCCC3)c(C3CCC3)cc21` [Example 2.2, 3-cyclobutyl-2-cyclopentyl-5-methylbenzo[b][1,6]naphthyridine-1,10(2H,5H)-dione]: half-maximal activity (AC50) was put at 2100 nM and the Emax worked out at 262%.
In the same order, the values of `CC(C)c1cc2[nH]c3ccccc3c(=O)c2c(=O)n1C1CCCC1` [Example 2.3, 2-cyclopentyl-3-isopropylbenzo[b][1,6]naphthyridine-1,10(2H,5H)-dione] are 400 nM and 235%.
Turning to `CC(C)c1cc2c(c(=O)c3ccccc3n2C)c(=O)n1C1CCCC1` [Example 2.4, 2-cyclopentyl-3-isopropyl-5-methylbenzo[b][1,6]naphthyridine-1,10(2H,5H)-dione], the AC50 stood at 1800 nM and the Emax worked out at 274%.
